Results taken from patent US20250109127A1, “METHODS OF USE OF PHENOXYPROPYLAMINE COMPOUNDS TO TREAT DEPRESSION” (Minerva Neurosciences, Inc., priority 2013, published 2025).
Entries after “also recorded” stand apart in the source; their conditions may differ. Each block holds one compound with its values, some of them ahead of it.

Columns and labels:
[1] = Pharmacokinetic study, plasma concentration on day 1 and day 14; assay type: in vivo; conditions: day 1 and day 14 after dosing with SON-117
Source text: were examined in pharmacokinetic studies.
FIG. 34 illustrates the plasma concentration of SON-117 as a function of time on day 1 after dosing with SON-117. FIG. 35 illustrates the plasma concentration of SON-117 as a function of time on day 14 after dosing with SON˜117.
FIG. 36 illustrates the plasma concentration of the M1 metabolite of SON-117 as a function of time on day 1 after dosing with SON-117. FIG. 37 illustrates the plasma concentration of the M1 metabolite of SON-117 as a function of time on day 14 after dosing with SON-117.

[2] = system: dopamine release in the rat prefrontal cortex; assay: Microdialysis: dopamine release in prefrontal cortex after I.P. administration; assay type: in vivo; conditions: 3 mg/kg IP, n = 8
Procedure: The aim of the study was to evaluate, using microdialysis, the effects of an intraperitoneal (I.P.) administration in rats of three different doses of SON-117 on dopamine and its metabolites, serotonin and its metabolite (5-HIAA), and norepinephrine levels in prefrontal cortex.
Thirty-two adult male Wistar rats were used for the whole study (4 groups of eight animals planned for the study, Table 1).
Surgery was performed on rats weighing about 300 g at the beginning of the experiments. Rats were anaesthetized with Ketamine (50 mg/kg) & Xylazine (15 mg/kg) by intramuscular administration. The animals were placed in a stereotaxic apparatus in the flat-skull position at a constant setting of −3.3 mm between ear bars and the incisor bar. The animals were treated with a local anesthesic (xylocaine 1%, Astra Zeneca) and an analgesic (Temgesic, from Schering Plough, 0.05 mg/kg, s.c.). A rostrocaudal midline incision was made with a lancet to expose the dorsal skull surface. The “stereotaxic zero” was defined by the Bregma in accordance with Paxinos and Watson's atlas (1986). A hole was drilled in the skull with a drill and the meninges were pierced with a sterile needle to implant a CMA12 guide cannula which later received the dialysis probe.
Coordinates used for implanting guide cannula in prefrontal cortex from Bregma were anteroposterior 3.7 mm, mediolateral 0.8 mm, and dorsoventral −2 mm (top of the probe was at −5 mm). The guide cannula was fixed to the skull with two stainless steel screws (1.88 mm outside diameter) anchored. An application of dental cement was added. A plastic collar allowed each animal to be tethered to a Swivel assembly of the CMA 120 awake animal system. Following surgery, rats were kept in individual cages and allowed to recover for a minimum of 3-5 days before the experimentation. The rats were handled and put in plastic bowl for 10 min at least every day to habituate the animals to their new environment for the dialysis. An I.P. administration with saline was also performed every day.
Dialysis probes (CMA12/3 mm, membrane, 20 kD cut-off, Carnegie Medicine, Stockholm, Sweden), were carefully washed before inserting into the guide cannula. The wash was performed with the artificial cerebrospinal fluid (aCSF) medium (NaCl 147 mM, KCl 2.7 mM, CaCl2 1.2 mM, MgCl2 0.85 mM) at room temperature. The dialysis system was then equilibrated at 20° C. at a perfusion rate of 1 μl/min with a Carnegie pump (CMA100). All catheters (FEP tubing, internal volume of 1.2 μl/10 cm, and tubing adaptors) used for microdialysis were treated in the same conditions.
The probes duly prepared were inserted into the guide cannula and the CMA120 Swivel assembly secured to the animal using a plastic collar. Flow through the dialysis probe with aCSF was maintained at a rate of 1 μl/min during the whole experimentation. The first four fractions (corresponding to 2 hours) were discarded to avoid the effects of parenchymal disturbance and to ensure that an approximate steady-state level was reached. Fractions were then collected over a period of 8.5 h during which time the animals remained quiet. The dialysates were automatically collected with an autosampler (microfraction collector CMA 140, Carnegie Medicin) and stored at −80° C. until analysis. […] Perfusion was then maintained for 7 hours with aCSF. The dialysates (30 μl) were collected into 300 μl vials, transferred into dry ice and then kept frozen (−80° C.) until analysis. Frozen samples were shipped to a partner for analysis. At the end of the microdialysis study, a PBS with colored ink was perfused through the probe in order to visualize the dialyzed area.
Catecholamine assay: Concentrations of dopamine, DOPAC, HVA, 5-HIAA, 5-HT, and norepinephrin were determined for each sample by HPLC coupled with electrochemical detection.

[3] = system: sleep EEG parameters; assay: Polysomnography / sleep EEG study; assay type: in vivo, human; conditions: escitalopram 20 mg
Procedure: In this study, certain pharmacodynamic sleep parameters predictive of antidepressant activity were monitored and measured. […] Three doses of SON-117 were tested (1 mg, 3 mg, 7.5 mg). […] In an embodiment, SON-117 affected sleep. In an embodiment, SON-117 affected REM sleep.
[…] subjects were tested in a sleep study, where 23 subjects were dosed with SON-117 in amounts of 1 mg up to 7.5 mg; 12 were given a placebo; and 8 were given escitalopram at a dose of 20 mg. Sleep was recorded in individual sound-attenuated and comfortably furnished bedrooms. During bedtime hours subjects were recumbent and the lights are turned off. The polysomnographic montage consisted of 4 EEG channels (C3A2, O1A2, C4A1, and O2A1), bilateral electro-oculograms, and 2 submental electromyograms. The different sleep parameters were derived with the Hypnos software from the visual scoring of the recordings at 30 sec epochs according to Rechtschaffen and Kales (1968) rules. Sleep continuity parameters comprise both sleep initiation and sleep maintenance variables. Sleep architecture parameters, which include REM sleep parameters, comprise stages distribution variables documenting duration and proportion of the different sleep stages and sleep profile variables that provide an outline on the time course of the different sleep stages during the recording period. All night sleep EEG spectral analysis was carried out on the C3-A2 derivation by means a fast Fourrier transform algorithm. Epoch length was 2 seconds at a sampling rate of 256 Hz and truncating error was reduced by applying a Hanning window. Sleep visual scores of each 30-second epoch was synchronised with power density values in order to allow the analysis of power density within in specific period of time such as REM and non REM sleep.

[4] = system: animals exposed to chronic mild stress; assay: Novel object recognition test after CMS and treatment withdrawal; assay type: in vivo, rat; conditions: imipramine 10 mg/kg IP, one week after withdrawal
Source text: (§1) After completion of the administration and withdrawal period, all control and stressed animals were placed in an open field (100 cm in diameter, 35 cm high) and allowed to explore two identical objects (cylinder-shaped object with walls painted white, 7 cm in diameter, 11 cm high) for the time required to complete 15 s of exploration of either object. For the retention trial conducted one hour later, one of the objects presented previously was replaced with a novel object (prism-shaped object with walls painted black, 5 cm wide, 14 cm high). Rats were returned to the open field for 5 min and the duration of exploration (i.e. sitting in close proximity to the objects, sniffing or touching them) of each object was measured separately by a trained observer. The data were calculated according to the following formula: [time of novel object exploration divided by time of novel plus familiar object exploration multiplied by 100]. The CMS and NOR data were analyzed by multiple analyses of variance with three between-subjects factors (stress/control, drug treatments and intakes in successive sucrose tests). The Fisher's LSD test was used for the post-hoc comparisons of means.

[5] = system: animals exposed to chronic mild stress; assay: Chronic mild stress (CMS) model, consumption of 1% sucrose solution; assay type: in vivo, rat
Procedure: Male Wistar rats (Charles River, Germany) were brought into the laboratory one month before the start of the experiment. Except as described below, the animals were singly housed with food and water freely available, and were maintained on a 12-h light/dark cycle, in a constant temperature (22±2° C.) and humidity (50±5%) conditions.
After a period of 2 weeks of adaptation to laboratory and housing conditions, the animals were first trained to consume a 1% sucrose solution; training consisted of nine 1 h baseline tests in which sucrose was presented, in the home cage, following 14 h food and water deprivation; the sucrose intake was measured by weighing pre-weighed bottles containing the sucrose solution, at the end of the test. Subsequently, the sucrose consumption was monitored, under similar conditions, at weekly intervals throughout the whole experiment.
On the basis of their sucrose intakes in the final baseline test, the animals were divided into two matched groups. One group of animals was subjected to the chronic mild stress procedure for a period of 8 consecutive weeks. Each week of stress regime consisted of: two periods of food or water deprivation, two periods of 45 degree cage tilt, two periods of intermittent illumination (lights on and off every 2 h), two periods of soiled cage (250 ml water in sawdust bedding), one period of paired housing, two periods of low intensity stroboscopic illumination (150 flashes/min), and three periods of no stress. All stressors were 10-14 h of duration and were applied individually and continuously, day and night. Control animals were housed in separate rooms and had no contact with the stressed animals. They were deprived of food and water for the 14 h preceding each sucrose test, but otherwise food and water were freely available in the home cage.
On the basis of their sucrose intakes following initial 2 weeks of stress, both the stressed and the control groups were each divided further into matched subgroups (n=8), and for subsequent five weeks they received once daily intraperitoneal injections of vehicle (0.5% hydroxypropylmethylcellulose, 1 ml/kg), SON-117 (0.001, 0.01, 0.1 and 1 mg/kg) or imipramine (10 mg/kg) as the reference treatment. The drugs were administered at approx. 10:00 AM and the weekly sucrose tests were carried out 24 h following the last drug injections. After five weeks all treatments were terminated and one additional sucrose test was carried out after one week of withdrawal. Stress was continued throughout the period of treatment and withdrawal.
as §1

- AUC, dependence on dose [1]: dose-proportional increase
- Cmax, dependence on dose [1]: dose-proportional increase
Structure (SMILES): OCc1nnc(-c2cc3c(OC[C@@H](O)CN4CCC(c5ccc(Cl)c(Cl)c5)CC4)cccc3o2)o1 [M1]

Structure (SMILES): Cc1nnc(-c2cc3c(OC[C@@H](O)CN4CCC(c5ccc(Cl)c(Cl)c5)CC4)cccc3o2)o1.Cl [SON117]
- Dopamine release, MEAN ([2]; T0-T30 min): 129.47 % of respective basal
- Dopamine release, MEAN ([2]; T30-T1 h): 110.54 % of respective basal
- Dopamine release, MEAN ([2]; T1 h 30-T2 h): 134.25 % of respective basal
- Dopamine release, MEAN ([2]; T1 h-T1 h 30): 169.31 % of respective basal
- Dopamine release, MEAN ([2]; T2 h 30-T3 h): 115.17 % of respective basal
- Dopamine release, MEAN ([2]; T2 h-T2 h 30): 106.18 % of respective basal
- Dopamine release, MEAN ([2]; T3 h 30-T4 h): 113.02 % of respective basal
- Dopamine release, MEAN ([2]; T3 h-T3 h 30): 117.50 % of respective basal
- Dopamine release, MEAN ([2]; T4 h 30-T5 h): 111.42 % of respective basal
- Dopamine release, MEAN ([2]; T4 h-T4 h 30): 126.77 % of respective basal
- Dopamine release, MEAN ([2]; T5 h 30-T6 h): 148.15 % of respective basal
- Dopamine release, MEAN ([2]; T5 h-T5 h 30): 123.35 % of respective basal
- Dopamine release, MEAN ([2]; T6 h 30-T7 h): 167.43 % of respective basal
- Dopamine release, MEAN ([2]; T6 h-T6 h 30): 131.63 % of respective basal
- Dopamine release, MEAN ([2]; T-30 min-T0 (before administration)): 96.15 % of respective basal
- Dopamine release, MEAN ([2]; T-1 h 30-T-1 h (before administration)): 104.41 % of respective basal
- Dopamine release, MEAN ([2]; T-1 h-T-30 min (before administration)): 99.29 % of respective basal

Structure (SMILES): CN(C)CCC[C@@]1(c2ccc(F)cc2)OCc2cc(C#N)ccc21 [escitalopram, reference compound]
- pharmacodynamic sleep parameters, positive comparator [3]: behaved as expected

Structure (SMILES): CN(C)CCCN1c2ccccc2CCc2ccccc21 [imipramine, reference compound]
- recognition index in control animals [4]: decreased
- effect against the CMS-induced deficit in recognition index ([4]; stressed animals): ineffective
- treatment time until increase in sucrose intake in stressed animals reached statistical significance vs Week 0 ([5]; imipramine 10 mg/kg IP): four
- effect on sucrose intake one week after cessation of treatment ([5]; imipramine 10 mg/kg IP, stressed animals): maintained
- sucrose intake in control animals, compared to vehicle ([5]; once daily IP for five weeks, imipramine 10 mg/kg, SON-117 all doses (0.001, 0.01, 0.1 and 1 mg/kg)): no significant effect
- sucrose consumption in stressed animals, compared to vehicle ([5]; once daily IP for five weeks, imipramine 10 mg/kg, SON-117 all four doses (0.001-1 mg/kg)): gradually increased; also recorded: fully reversed
